Tests used:
Solubility in water = format: physicochemical
[1] = Solid state / storage stability; format: physicochemical
Text: The stability of omeprazole sodium form A obtained by the processes of the present invention may be determined by standard protocol for characterisation of stability of a pharmaceutically active substance (EU: Adopted by CPMP, March 2003, issued as CPMP/ICH/2736/99—“Committee for proprietary medical products; Note for Guidance on ICH Q1A (R2) Stability testing guidelines: Stability testing of new drug substances and products”). Packed omeprazole sodium form A was aged for a definite period of time (1 month, 3 months, 6 months) under accelerated conditions of aging (at a temperature of 40° C. and 75% relative humidity which is a standard accelerated condition for stability testing of pharmaceutical formulations) and/or stress condition of aging (at a temperature of 60° C. which is a standard stress condition for stability testing of pharmaceutically active substances). Determination of absorbance measured according to the PhEur method (PhEur 3 Suppl 2000) was used as a criterion for evaluation of the sample quality during stability testing. It has previously been shown that measurement of absorbance is a more sensitive method for monitoring the process of omeprazole sodium decomposition than, for example, detection of present impurities using chromatographic methods (PhEur 3 Suppl 2000).

[2] = prior art description (EP-B-124 495, US 6,207,188, US 2004/0224987); cited from earlier work
[3] = prior art description (US 6,207,188, US 2004/0224987); cited from earlier work

SMILES: COc1ccc2[n-]c([S+]([O-])Cc3ncc(C)c(OC)c3C)nc2c1.[Na+] (centres unmarked) [omeprazole sodium form A, omeprazole sodium]
- solubility in water (Solubility in water): highly soluble in water
- stability on storage (chemical composition, hygroscopicity, solubility, crystalline form) [1]: stable

SMILES: COc1ccc2[n-]c([S+]([O-])Cc3ncc(C)c(OC)c3C)nc2c1.O.[Na+] (centres unmarked) [omeprazole sodium form B, omeprazole sodium monohydrate salt]
- hygroscopicity as described in prior art [2]: non-hygroscopic
- thermodynamic stability as described in prior art [3]: thermodynamically stable

SMILES: COc1ccc2[n-]c([S+]([O-])Cc3ncc(C)c(OC)c3C)nc2c1.[Na+] (centres unmarked) [omeprazole sodium form E, omeprazole sodium]
- stability under special conditions ([1]; stored under nitrogen atmosphere): stable compounds under special conditions
